Measurements from patent US20120040956A1, “INHIBITORS OF HIF-1 PROTEIN ACCUMULATION” (INTERMED DISCOVERY GMBH, priority 2008, published 2012).

Legend:
[1] = system: IKKy/NEMO; test: Cellular protein translation in 293T cells (anti-IKKy/NEMO immunoblotting); format: cell-based, human; conditions: 100 nM, 10 h and 24 h
Method: 293T cells were grown in the presence of the known translation inhibitor cycloheximide (10 μg/ml) and 100 nM of IMD-019064, IMD-026259 and IMD-026260 respectively. […] Cells were harvested after 10 h and 24 h and cell lysates were produced. Equal amounts of protein contained in the cell lysates were used for immunoblotting with anti-IKKy/NEMO antibodies as shown in FIG. 12. IKKy/NEMO is a constitutively expressed relatively labile protein. Thus successful inhibition of cellular protein translation should result in significant decline of anti-IKKy/NEMO signal.

[2] = system: HIF-1α mRNA; test: Hif-1α mRNA expression by real-time PCR; format: cell-based; conditions: human cells, 250 nM for 3 h, normoxic or hypoxic (45 minutes, 1% O2)
Method: In order to investigate whether the compounds of the invention do exert their HIF-1-1 suppressive action via inhibition of HIF-1-1 transcription the compounds were tested for their effects on HIF-1α mRNA production. In all experiments, human cells were exposed to efficiently blocking concentrations (250 nM) of the test compounds for 3 h. Then cells were further cultivated under normoxic or hypoxic conditions (45 minutes, 1% O2) respectively. Afterwards cell samples were harvested and RNA was extracted. cDNA was synthesized using specific primers and the PE Applied Biosystems Reverse Transcription Reagents. Real-time PCR was performed by using the SYBR Green I detection chemistry (Applied Biosystems) and an ABI Prism 7300 system. The expression of Hif-1α was quantified and results were normalized to Hprt1 and β-Actin (“housekeeping-gene”) expression. The relative abundance of the different genes was calculated by the comparative CT method. HIF-1α transcription of normoxic control cells was arbitrarily set to 1. […] Therefore an effect of IMD-compounds on HIF-1-dependent gene expression seems not to be mediated on HIF-1α transcription (FIG. 5).

[3] = system: NHDF (fibroblast); test: NHDF (fibroblast) spheroid sprouting/scattering in 3D collagen gel; format: cell-based; conditions: Homo sapiens, 24 h, 3D collagen gel, read-out: IC50, NHDF fibroblast spheroid sprouting/scattering
Method: Prior application the stock solution [100 mM] of IMD-019064 was diluted 1:10 in DMSO and serially diluted in half logarithmic steps covering the concentration range from 10 mM to 1 μM using 100% DMSO. The final assay concentration ranged from 100 μM to 10 nM with a final DMSO concentration in the assay of 1%. The experiments were pursued in modification of the originally published protocol (Korff and Augustin: J Cell Sci 112: 3249-58, 1999). In brief, spheroids were prepared as described by Korff and Augustin: J Cell Biol 143: 1341-52, 1998) by pipetting 500 endothelial cells (EC) in a hanging drop on plastic dishes to allow overnight spheroid aggregation. […]
Plates were incubated at 37° C. for 24 hours and fixed by adding 4% paraformaldehyde. The cumulative sprout length of 10 randomly selected spheroids per data point was analyzed and the relative inhibition by the test compound determined. […] Sprouting intensity of EC and fibroblast spheroids was quantitated by an image analysis system using an inverted microscope and the digital imaging software Analysis 3.2 (Soft imaging system, Munster, Germany). […] The cumulative sprout length of 10 randomly selected spheroids per data point was analyzed according to the procedure used for the HUVEC experiment. […]

[4] = system: HIF-1; test: HIF-1-dependent luciferase reporter gene activity in 293T cells under hypoxia; format: cell-based, human
Method: A HIF-1-dependent luciferase reporter gene was transfected into 293T cells by transfection with Rotifect™ (Trademarked by Carl Roth GmbH; Karlsruhe, Germany) or alternatively into Jurkat T cells by electroporation. Both cell lines were transfected with a HIF-1-dependent reporter gene. The next day, cells were preincubated for 1 h with the indicated, submicromolar concentrations of the test compounds and then incubated for further 8 h under normoxic or hypoxic (1% O2) conditions. After that, cells were harvested followed by the analysis of luciferase activity in a luminometer.
A HIF-1-dependent luciferase reporter gene was transfected into 293T cells. The next morning, cells were pretreated for 1 h with the indicated concentrations of compounds, followed by induction of hypoxia (hypoxia chamber) for 8 h. Subsequently cells were harvested and lyzed. Luciferase activity in cell extracts was measured in a luminometer (Duo Lumat LB 9507, Berthold) by injecting 20 microliter of assay buffer to 20 microliter of extract. Light emission was measured for 10 s, relative light units are given.
After transfection of 293T cells with a HIF-1-dependent luciferase reporter gene, cells were further incubated under normoxic or hypoxic (8 h, 1% O2) conditions as shown in FIG. 4. Effectively blocking concentrations of the IMDs (250 nM each) were added either 1 hour prior to hypoxia or 2 and 4 hours after induction of hypoxia.

[5] = system: HUVEC; test: Spheroid-based angiogenesis assay, VEGF-A induced HUVEC sprouting; format: cell-based, human
Method: As described in Example 4 HUVEC spheroids were generated, cultivated and embedded in a 3D collagen gel and stimulated with Vascular Endothelial Growth Factor alpha [VEGF-A; 25 ng/ml] instead of deferoxamine. Cell spheroids were treated for 24 h with different concentrations of IMD-026259; IMD-026260; Sutent® (Sunitinib) and Sorafenib (Nexavar®) (in Molar [M], as indicated in Table 4; see also FIG. 14A).
The cumulative sprout length of 10 randomly selected spheroids per data point was analyzed and the relative inhibition by the test compound determined. Fitting of IC50 curves and calculation of IC50 values was performed with GraphPad Prism® 5.01 (trademarked by GraphPad Software Inc.). […] Results from the examples described above are summarized in FIG. 14b IC50 values are given in nM for in vitro angiogenesis (HUVEC sprouting) studies after hypoxic or VEGF induction.

CNCCOc1ccc2c(c1)OC1(c3ccc(Cl)cc3)C(c3ccccc3)CC(O)C21O (stereo not shown) [IMD-026260, (1,3a,8b)-3a-(4-chlorophenyl)-6-(2-(methylamino)ethoxy)-3-phenyl-2,3,3a,8b-tetrahydro-1H-benzo[d]cyclopenta[b]furan-1,8b-diol]
anti-IKKy/NEMO signal (cellular protein translation) [1]: did not result in reduced anti-IKKy/NEMO signals | effect on Hif-1α mRNA production [2]: did not show any effects | IC50 [3]: 180 nM | time-dependency of inhibition of HIF-1-dependent luciferase expression ([4]; 250 nM, added 4 hours after induction of hypoxia (8 h, 1% O2)): able to inhibit HIF-1-dependent luciferase expression even when added 4 hours after hypoxic induction | IC50 ([4]; Homo sapiens, HEK-293T, 1 h pretreatment, hypoxia 8 h, read-out: IC50, HIF-1 luciferase inhibitory activity): 18 nM | IC50 ([5]; Homo sapiens, HUVEC, VEGF-A 25 ng/ml, 24 h, read-out: IC50, VEGF-A induced sprouting of HUVEC spheroids): 28 nM | inhibition of angiogenic sprouting in vitro (HUVEC sprouting) ([5]; after hypoxic or VEGF induction, summary statement): potent inhibitors of angiogenic sprouting in vitro
